One assay has as its system HCT-116 cells. The assay can be described thus: Inhibition of cell growth (MTT tetrazolium salt assay). The settings on record: Homo sapiens; for IC50: read-out: HCT116 IC50; for IC90: read-out: HCT116 IC90. The class given is cell-based. The essentials:
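HCT-116 cells in McCoy's 5A were pre-incubated 4 h, then exposed to compounds in 0.5% DMSO for 4–6 days at 37 °C. MTT at 0.2 mg/mL final was added for 4 h and DMSO-solubilized formazan read at 540 nm. Values are relative to 0.5% DMSO-only controls.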

The next assay has as its target T1, CDK4/cyclin D3 (Homo sapiens, UniProt P11802).
T1 construct: made in house; host or cells: insect cells (baculovirus co-infection)
The assay can be described thus: Inhibition of CDK4/Cyclin D retinoblastoma kinase activity. The class given is biochemical. The following applies: apparent Ki, Rb fragment substrate. The essentials:
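Human CDK4 with truncated cyclin D3 (1-264) from baculovirus-infected insect cells, 5 nM, phosphorylating His-tagged Rb fragment (386-928) with 25 μM [32P/33P]ATP in pH 7.4 HEPES/MgCl2, 2% DMSO, 30° C., 20 min (60 min for tight binders). Filter capture, phosphorimager; apparent Ki from competitive or tight-binding competitive fits.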

Another assay deals with T2, CDK2/cyclin A (Homo sapiens, UniProt P24941).
T2 construct: made in house; host or cells: CDK2: insect cells (baculovirus); cyclin A: E. coli, then limited proteolysis
The assay can be described thus: Inhibition of CDK2/Cyclin A retinoblastoma kinase activity. It is filed as biochemical. The settings on record: apparent Ki, Rb fragment substrate. On the procedure:
Cyclin-dependent kinase activity was measured by quantifying the enzyme-catalyzed, time-dependent incorporation of radioactive phosphate from [^32P]ATP or [^33P]ATP into a protein substrate. Unless noted otherwise, assays were performed in 96-well plates in a total volume of 50 μL, in the presence of 10 mM HEPES (N-[2-hydroxyethyl]piperazine-N′-[2-ethanesulfonic acid]) (pH 7.4), 10 mM MgCl2, 25 μM adenosine triphosphate (ATP), 1 mg/mL ovalbumin, 5 μg/mL leupeptin, 1 mM dithiothreitol, 10 mM β-glycerophosphate, 0.1 mM sodium vanadate, 1 mM sodium fluoride, 2.5 mM ethylene glycol-bis(β-aminoethyl ether)-N,N,N′N′-tetraacetic acid (EGTA), 2% (v/v) dimethylsulfoxide, and 0.03-0.4 μCi [^32/33P]ATP per reaction. Reactions were initiated with enzyme, incubated at 30° C., and terminated after 20 minutes by the addition of ethylenediaminetetraacetic acid (EDTA) to 250 mM. The phosphorylated substrate was then captured on a nitrocellulose or phosphocellulose membrane using a 96-well filtration manifold, and unincorporated radioactivity was removed by repeated washing with 0.85% phosphoric acid. Radioactivity was quantified by exposing the dried membranes to a phosphorimager.
Inhibition was measured relative to control wells that contained all reaction components including 2% (v/v) DMSO but no compound, after subtraction of background radioactivity measured in the absence of enzyme. Apparent Ki values of discrete compounds were measured by assaying enzyme activity in the presence of different inhibitor compound concentrations and subtracting the background radioactivity measured in the absence of enzyme. The kinetic parameters (kcat, Km for ATP) were measured for each enzyme under the usual assay conditions by determining the dependence of initial rates on ATP concentration. Inhibition data were fit to an equation for competitive inhibition using Kaleidagraph (Synergy Software), or were fit to an equation for competitive tight-binding inhibition using the software KineTic (BioKin, Ltd.).
CDK2 was purified using published methodology (Rosenblatt et al., J. Mol. Biol., 230, 1317-1319 (1993)) from insect cells that had been infected with a baculovirus expression vector. Cyclin A was purified from E. coli cells expressing full-length recombinant cyclin A, and a truncated cyclin A construct was generated by limited proteolysis and purified as described previously (Jeffrey et al., Nature, 376, 313-320 (1995)). A complex of CDK2 and proteolyzed cyclin A was prepared and purified by gel filtration. The substrate for this assay was the same Rb substrate fragment used for the CDK4 assays, and the methodology of the CDK2/delta cyclin A and the CDK4/delta cyclin D3 assays was essentially the same, except that CDK2 was present at 10 nM or 19 nM. The duration of the assay was 60 or 75 minutes, during which the time-dependence of product formation was linear and initial rate conditions were met.

The structures appear in SMILES notation.

As a reminder, the IC50 is the point on the concentration scale where inhibition reaches its midpoint. What is called IC90 is the concentration at which the effect reaches the 90% level.

T1 sequence (P11802 whole entry): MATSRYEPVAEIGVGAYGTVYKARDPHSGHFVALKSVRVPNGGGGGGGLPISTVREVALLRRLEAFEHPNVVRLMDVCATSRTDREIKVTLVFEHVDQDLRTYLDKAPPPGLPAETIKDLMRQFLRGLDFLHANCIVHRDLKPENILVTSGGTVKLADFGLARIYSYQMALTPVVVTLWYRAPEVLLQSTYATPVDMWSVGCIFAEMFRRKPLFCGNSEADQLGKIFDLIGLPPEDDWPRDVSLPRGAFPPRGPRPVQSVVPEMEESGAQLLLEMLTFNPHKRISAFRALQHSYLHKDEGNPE
T1 sequence (P30281 1-264 partner limits assumed): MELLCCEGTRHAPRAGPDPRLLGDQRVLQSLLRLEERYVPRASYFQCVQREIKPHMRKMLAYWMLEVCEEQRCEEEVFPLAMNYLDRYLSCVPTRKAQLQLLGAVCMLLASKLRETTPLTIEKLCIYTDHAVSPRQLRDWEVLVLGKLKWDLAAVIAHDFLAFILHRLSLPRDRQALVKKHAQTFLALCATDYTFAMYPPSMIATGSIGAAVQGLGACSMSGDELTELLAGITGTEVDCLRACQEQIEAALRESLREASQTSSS

Consider `CN(C)CCCNS(=O)(=O)c1ccc(Nc2nc(N)c(C(=O)c3c(F)cccc3F)s2)cc1` [Example A(21), 4-[4-Amino-5-(2,6-difluoro-benzoyl)-thiazol-2-ylamino]-N-(3-dimethylamino-propyl)-benzenesulfonamide], for which, in the assay with HCT-116 cells, the IC50 amounted to 1800 nM and the IC90 came out at 4400 nM. Also, the Ki on CDK4/cyclin D3 amounted to 6.8 nM. The Ki on CDK2/cyclin A was 14 nM.

Consider `NC(=O)C[S+]([O-])c1cccc(Nc2nc(N)c(C(=O)c3c(Cl)cccc3Cl)s2)c1` (stereo not drawn) [Z(5), 2-{3-[4-Amino-5-(2,6-dichloro-benzoyl)-thiazol-2-ylamino]-benzenesulfinyl}-acetamide], for which the IC50 in the assay on HCT-116 cells was over 25000 nM. The IC90 in the assay with HCT-116 cells was over 25000 nM. In addition, the Ki at CDK4/cyclin D3 was found to be 230 nM; at CDK2/cyclin A, 330 nM.

As for `NC(=O)C[S+]([O-])c1ccc(Nc2nc(N)c(C(=O)c3c(Cl)cccc3Cl)s2)cc1` (stereo not drawn) [Z(2), 2-(4-{4-Amino-5-(2,6-dichlorobenzoyl)-thiazol-2-ylamino}-benzenesulfinyl)-acetamide], in the assay on HCT-116 cells, the IC50 came out at 18000 nM and the IC90 is over 25000 nM. The Ki on CDK4/cyclin D3 came out at 15 nM. In addition, the Ki on CDK2/cyclin A came out at 62 nM.

Consider `Nc1nc(Nc2ccc(S(=O)(=O)NCCCN3CCCC3=O)cc2)sc1C(=O)c1c(F)cccc1F` [A(25), 4-[4-Amino-5-(2,6-difluoro-benzoyl)-thiazol-2-ylamino]-N-[3-(2-oxo-pyrrolidin-1-yl)-propyl]-benzenesulfonamide], for which, in the assay on HCT-116 cells, the IC50 came out at 3400 nM and the IC90 came out at 5000 nM. Besides, on CDK4/cyclin D3, the Ki stood at 16 nM. Moreover, the Ki at CDK2/cyclin A was 4.1 nM.

For `Nc1nc(Nc2ccc(S(=O)(=O)Nc3ccccc3)cc2)sc1C(=O)c1c(F)cccc1F` [C(1), 4-[4-Amino-5-(2,6-difluoro-benzoyl)-thiazol-2-ylamino]-N-phenyl-benzenesulfonamide], in the assay with HCT-116 cells, the IC50 was determined as 870 nM and the 90% effect concentration (IC90) was 1900 nM. Moreover, on CDK4/cyclin D3, the Ki came out at 76 nM. The Ki on CDK2/cyclin A is 17 nM.

On to `Nc1nc(Nc2ccc(S(=O)(=O)NCCc3ccccn3)cc2)sc1C(=O)c1c(F)cccc1F` [A(24), 4-[4-Amino-5-(2,6-difluoro-benzoyl)-thiazol-2-ylamino]-N-(2-pyridin-2-yl-ethyl)-benzenesulfonamide], for which, in the assay on HCT-116 cells, the IC50 amounted to 1200 nM and the IC90 turned out to be 2600 nM. Besides, the Ki on CDK4/cyclin D3 was found to be 18 nM. For the same molecule, the Ki on CDK2/cyclin A was 5 nM.

With `Cc1ccc(CNS(=O)(=O)c2ccc(Nc3nc(N)c(C(=O)c4c(F)cc(F)cc4F)s3)cc2)o1` [B(1), 4-[4-Amino-5-(2,4,6-trifluoro-benzoyl)-thiazol-2-ylamino]-N-(5-methyl-furan-2-ylmethyl)-benzenesulfonamide], in the assay with HCT-116 cells, the IC50 was 900 nM and the IC90 amounted to 2000 nM. Moreover, the Ki on CDK4/cyclin D3 was determined as 100 nM. Moreover, the Ki on CDK2/cyclin A was under 10 nM.

With `Nc1nc(Nc2ccc(S(=O)(=O)N3CCNCC3)cc2)sc1C(=O)c1c(F)cccc1F` [Example A(1), {4-Amino-2-[4-(piperazine-1-sulfonyl)-phenylamino]-thiazol-5-yl}-(2,6-difluoro-phenyl)-methanone], the 50% inhibitory concentration (IC50) with HCT-116 cells was 1000 nM. Moreover, in the assay on HCT-116 cells, the 90% effect concentration (IC90) came out at 2700 nM. Further, the Ki at CDK4/cyclin D3 was found to be 26 nM; on CDK2/cyclin A it was 14 nM.

For `CC(C)OCCCNS(=O)(=O)c1ccc(Nc2nc(N)c(C(=O)c3c(F)cccc3F)s2)cc1` [Example A(10), 4-[4-Amino-5-(2,6-difluoro-benzoyl)-thiazol-2-ylamino]-N-(3-isopropoxy-propyl)-benzenesulfonamide], the half-inhibitory concentration (IC50) in the assay with HCT-116 cells turned out to be 900 nM. In addition, in the assay with HCT-116 cells, the IC90 worked out at 2200 nM. Also, the Ki is 12 nM at CDK4/cyclin D3 and 2.2 nM on CDK2/cyclin A.

With `Nc1nc(Nc2ccc(S(=O)(=O)NCCCN3CCCC3)cc2)sc1C(=O)c1c(F)cccc1F` [Example A(8), 4-[4-Amino-5-(2,6-difluoro-benzoyl)-thiazol-2-ylamino]-N-(3-pyrrolidin-1-yl-propyl)-benzenesulfonamide], in the assay with HCT-116 cells, the IC50 is 2400 nM. Moreover, in the assay on HCT-116 cells, the IC90 stood at 5000 nM. In addition, the results for the Ki at CDK4/cyclin D3 and at CDK2/cyclin A were 9.9 nM and 11 nM, respectively.

Turning to `Cc1ccc(CNS(=O)(=O)c2ccc(Nc3nc(N)c(C(=O)c4c(F)cccc4F)s3)cc2)s1` [A(29), 4-[4-Amino-5-(2,6-difluoro-benzoyl)-thiazol-2-ylamino]-N-(5-methyl-thiophen-2-ylmethyl)-benzenesulfonamide], in the assay with HCT-116 cells, the concentration for half-maximal inhibition (IC50) turned out to be 190 nM and the IC90 is 560 nM. Also, at CDK4/cyclin D3, the Ki is 15 nM. Further, on CDK2/cyclin A, the Ki was under 5 nM.

Take `Cc1ccc(C(C)NS(=O)(=O)c2ccc(Nc3nc(N)c(C(=O)c4c(F)cccc4F)s3)cc2)o1` (stereo not drawn) [A(30), 4-[4-Amino-5-(2,6-difluoro-benzoyl)-thiazol-2-ylamino]-N-[1-(5-methyl-furan-2-yl)-ethyl]-benzenesulfonamide]: in the assay on HCT-116 cells, the half-inhibitory concentration (IC50) is 310 nM and the IC90 was determined as 640 nM. Besides, the Ki at CDK4/cyclin D3 came to 9 nM. Further, the Ki at CDK2/cyclin A is under 5 nM.

Take `Cc1cc(F)c(C(=O)c2sc(Nc3ccc(S(=O)(=O)NCCOC(C)C)cc3)nc2N)c(F)c1` [Example CC(1), 4-[4-Amino-5-(2,6-difluoro-4-methyl-benzoyl)-thiazol-2-ylamino]-N-(2-isopropoxy-ethyl)-benzenesulfonamide]: in the assay on HCT-116 cells, the IC50 is 280 nM and the concentration for an effect of 90% (IC90) worked out at 480 nM. For the same molecule, the Ki on CDK4/cyclin D3 is 9.7 nM. The Ki at CDK2/cyclin A turned out to be 0.74 nM.

`COCCNS(=O)(=O)c1ccc(Nc2nc(N)c(C(=O)c3c(F)cccc3F)s2)cc1` [Example A(3)]: in the assay with HCT-116 cells, the IC50 was 340 nM. Moreover, the IC90 in the assay on HCT-116 cells worked out at 720 nM. Further, the values for the Ki on CDK4/cyclin D3 and on CDK2/cyclin A were 53 nM and 3.5 nM, respectively.

As for `CC(CCCC(C)(C)O)NS(=O)(=O)c1ccc(Nc2nc(N)c(C(=O)c3c(F)cccc3F)s2)cc1` (stereo not drawn) [Example A(12), 4-[4-Amino-5-(2,6-difluoro-benzoyl)-thiazol-2-ylamino]-N-(5-hydroxy-1,5-dimethyl-hexyl)-benzenesulfonamide], in the assay with HCT-116 cells, the IC50 stood at 150 nM and the concentration for an effect of 90% (IC90) turned out to be 630 nM. For the same molecule, the Ki at CDK4/cyclin D3 turned out to be 4.2 nM. For the same molecule, on CDK2/cyclin A, the Ki is under 5 nM.

With `Nc1nc(Nc2ccc(S(=O)(=O)NCCc3cccs3)cc2)sc1C(=O)c1c(F)cccc1F` [A(23), 4-[4-Amino-5-(2,6-difluoro-benzoyl)-thiazol-2-ylamino]-N-(2-thiophen-2-yl-ethyl)-benzenesulfonamide], in the assay on HCT-116 cells, the IC50 turned out to be 440 nM. Further, the IC90 in the assay with HCT-116 cells was 1200 nM. The Ki at CDK4/cyclin D3 was determined as 17 nM; on CDK2/cyclin A, 13 nM.

Regarding `CC1CCCCN1CCCNS(=O)(=O)c1ccc(Nc2nc(N)c(C(=O)c3c(F)cccc3F)s2)cc1` (stereo not drawn) [Example A(15), 4-[4-Amino-5-(2,6-difluoro-benzoyl)-thiazol-2-ylamino]-N-[3-(2RS-methyl-piperidin-1-yl)-propyl]-benzenesulfonamide], in the assay with HCT-116 cells, the IC50 was found to be 460 nM and the IC90 is 1800 nM. Moreover, at CDK4/cyclin D3, the Ki is 8.4 nM. Also, the Ki at CDK2/cyclin A was 8.2 nM.

On to `CCSCCNS(=O)(=O)c1ccc(Nc2nc(N)c(C(=O)c3c(F)cccc3F)s2)cc1` [Example A(19), 4-[4-Amino-5-(2,6-difluoro-benzoyl)-thiazol-2-ylamino]-N-(2-ethylsulfanyl-ethyl)-benzenesulfonamide], for which, in the assay on HCT-116 cells, the IC50 amounted to 400 nM and the IC90 stood at 1300 nM. Further, the Ki on CDK4/cyclin D3 worked out at 24 nM. The Ki at CDK2/cyclin A turned out to be 1.8 nM.
